Data: US20120283334A1, “Treatment of Viral Infections” (Biocopea, Ltd., priority 2009, published 2012)
Where two headings read alike, the source gives them in different places.

Assays:
Con A stimulated cells [1] = test: Percentage cell survival of Con A stimulated cells; conditions: for Percentage cell survival compared to 100% untreated cells under Con A stimulation: compound only (no Con A)
Con A stimulated cells [2] = conditions: for Percentage cell survival compared to 100% untreated cells under Con A stimulation: human

For `CC(CCc1ccc(O)cc1)NCCc1ccc(O)c(O)c1` (centres unmarked) [BC1021, dobutamine], the “Percentage cell survival compared to 100% untreated cells under Con A stimulation” value (Con A stimulated cells [1]; 1 μM) was 76.89%, the “Percentage cell survival compared to 100% untreated cells under Con A stimulation” value (Con A stimulated cells [1]; 10 μM) was 69.80% and the “Percentage cell survival compared to 100% untreated cells under Con A stimulation” value (Con A stimulated cells [1]; 100 μM) was 44.95%. The “percentage cell survival compared to the untreated controls” value (Con A stimulated cells [1]; text summary of Table 5, all doses) was “higher”.
For `CC(NCCc1ccc(O)cc1)C(O)c1ccc(O)cc1` (centres unmarked) [BC1023, ritodrine], the “percentage cell survival compared to the untreated controls” value (Con A stimulated cells [2]) was “higher”, the “Percentage cell survival compared to 100% untreated cells under Con A stimulation” value (Con A stimulated cells [2]; 1 μM) was 78.69% and the “Percentage cell survival compared to 100% untreated cells under Con A stimulation” value (Con A stimulated cells [2]; 10 μM) was 75.25%. For the same compound, the “Percentage cell survival compared to 100% untreated cells under Con A stimulation” value (Con A stimulated cells [2]; 100 μM) was 72.56%.
